From PubChem BioAssay AID274 (DTP/NCI, 2004) come the findings set out here.

Where “and” joins values, the source holds several entries; their conditions need not be identical. Equal entries are not always repeated. Toxic doses and inconclusive results are not listed.

This experiment concerns BDF1 mice, Lewis lung carcinoma iv, survival T/C. Put plainly: NCI In Vivo Anticancer Drug Screen. Data for tumor model Lewis Lung Carcinoma (intravenous) in B6D2F1 (BDF1) mice. The conditions noted are these: higher = longer survival. The method, then:
The antitumor activity of compounds was measured in mice bearing transplantable tumors. Survival or tumor size were measured and the results are expressed as the measurement made in the treated group (T) divided by the measurement made in the vehicle treated control group (C). The tumor model used in this assay is Lewis Lung Carcinoma (intravenous) in B6D2F1 (BDF1) mice

Where [1] appears, read: endpoint: median survival time, dose: 3.12 mg/kg/injection, schedule: Q01DX009 (ip), vehicle: saline with Tween-80.
The mark [2] stands for this setting: endpoint: median survival time, dose: 6.25 mg/kg/injection, schedule: Q01DX009 (ip), vehicle: saline with Tween-80.
The mark [3] stands for this setting: endpoint: median survival time, dose: 12.5 mg/kg/injection, schedule: Q01DX009 (ip), vehicle: saline with Tween-80.
[4] abbreviates: endpoint: median survival time, dose: 25.0 mg/kg/injection, schedule: Q01DX009 (ip), vehicle: Klucel (hydroxypropylcellulose) (HPC).
Where [5] appears, read: endpoint: median survival time, dose: 25.0 mg/kg/injection, schedule: Q01DX009 (ip), vehicle: saline with Tween-80.
[6] abbreviates: endpoint: median survival time, dose: 50.0 mg/kg/injection, schedule: Q01DX009 (ip), vehicle: Klucel (hydroxypropylcellulose) (HPC).
[7] abbreviates: endpoint: median survival time, dose: 50.0 mg/kg/injection, schedule: Q01DX009 (ip), vehicle: saline with Tween-80.
The mark [8] stands for this setting: endpoint: median survival time, dose: 100.0 mg/kg/injection, schedule: Q01DX009 (ip), vehicle: Klucel (hydroxypropylcellulose) (HPC).
Setting [9] is: endpoint: median survival time, dose: 100.0 mg/kg/injection, schedule: Q01DX009 (ip), vehicle: saline with Tween-80.
Where [10] appears, read: endpoint: median survival time, dose: 200.0 mg/kg/injection, schedule: Q01DX009 (ip), vehicle: Klucel (hydroxypropylcellulose) (HPC).

`CN(N=O)C(=O)N[C@@H](C=O)[C@@H](O)[C@H](O)[C@H](O)CO`: the T/C (endpoint: median survival time, dose: 16.0 mg/kg/injection, schedule: Q01DX009 (ip), vehicle: other) is 109 % of control; the T/C (endpoint: median survival time, dose: 25.0 mg/kg/injection, schedule: Q01DX009 (ip), vehicle: citric acid) was 110 % of control; the T/C (endpoint: median survival time, dose: 32.0 mg/kg/injection, schedule: Q01DX009 (ip), vehicle: other) was 98 % of control; the T/C (endpoint: median survival time, dose: 64.0 mg/kg/injection, schedule: Q01DX009 (ip), vehicle: other) was 112 % of control; the T/C (endpoint: median survival time, dose: 100.0 mg/kg/injection, schedule: Q01DX009 (ip), vehicle: citric acid) is 124 % of control; the T/C (endpoint: median survival time, dose: 128.0 mg/kg/injection, schedule: Q01DX009 (ip), vehicle: other) was 109 % of control.
As to `c1ccc2c(c1)nnn1c3cnccc3nc21`, the T/C (endpoint: median survival time, dose: 1.56 mg/kg/injection, schedule: Q01DX009 (ip), vehicle: saline with Tween-80) was 103 % of control; the T/C under setting [1] is 90 % of control; the T/C under setting [2] was 103 % of control; the T/C under setting [3] is 109 % of control.
Turning to `Nc1cc2[nH]cnc2c(=O)[nH]1`, the T/C is 118 % of control (endpoint: mean survival time, dose: 95.0 mg/kg/injection, schedule: Q01DX009 (ip), vehicle: Klucel (hydroxypropylcellulose) (HPC)) and 90 % of control (endpoint: mean survival time, dose: 140.0 mg/kg/injection, schedule: Q01DX009 (ip), vehicle: Klucel (hydroxypropylcellulose) (HPC)).
For `O=C(NCCCCCCCCCCNC(=O)N1CC1)N1CC1`, the T/C reads like this: (endpoint: median survival time, dose: 0.75 mg/kg/injection, schedule: Q01DX009 (ip), vehicle: saline) 117 % of control; (endpoint: median survival time, dose: 1.5 mg/kg/injection, schedule: Q01DX009 (ip), vehicle: saline) 110 % of control; (endpoint: median survival time, dose: 3.0 mg/kg/injection, schedule: Q01DX009 (ip), vehicle: saline) 122 % of control; (endpoint: median survival time, dose: 6.0 mg/kg/injection, schedule: Q01DX009 (ip), vehicle: saline) 117 % of control.
As to `O=C1CCCCC1C(=O)C(F)(F)F` (centres undefined), the T/C (endpoint: median survival time, dose: 50.0 mg/kg/injection, schedule: Q01DX009 (ip), vehicle: saline + Tween-80 + alcohol) was 100 % of control.
`Nc1ccnc(=O)[nH]1`: the T/C is 111 % of control (endpoint: median survival time, dose: 32.0 mg/kg/injection, schedule: Q01DX009 (ip), vehicle: Klucel (hydroxypropylcellulose) (HPC)); 103 % of control (endpoint: median survival time, dose: 32.0 mg/kg/injection, schedule: Q01DX009 (ip), vehicle: saline with Tween-80); 98 % of control (endpoint: median survival time, dose: 64.0 mg/kg/injection, schedule: Q01DX009 (ip), vehicle: Klucel (hydroxypropylcellulose) (HPC)); 95 % of control (endpoint: median survival time, dose: 128.0 mg/kg/injection, schedule: Q01DX009 (ip), vehicle: Klucel (hydroxypropylcellulose) (HPC)); 102 % of control (endpoint: median survival time, dose: 256.0 mg/kg/injection, schedule: Q01DX009 (ip), vehicle: Klucel (hydroxypropylcellulose) (HPC)); 119 % of control (endpoint: median survival time, dose: 256.0 mg/kg/injection, schedule: Q01DX009 (ip), vehicle: saline with Tween-80). Moreover, the T/C was 86 % of control (endpoint: median survival time, dose: 512.0 mg/kg/injection, schedule: Q01DX009 (ip), vehicle: Klucel (hydroxypropylcellulose) (HPC)) and 107 % of control (endpoint: median survival time, dose: 512.0 mg/kg/injection, schedule: Q01DX009 (ip), vehicle: saline with Tween-80).
As for `C[C@@]12C(=O)OC(=O)[C@]1(C)[C@H]1CC[C@@H]2O1`, the T/C runs as follows: (endpoint: median survival time, dose: 0.06 mg/kg/injection, schedule: Q01DX009 (ip), vehicle: Klucel (hydroxypropylcellulose) (HPC)) 104 % of control; (endpoint: median survival time, dose: 0.12 mg/kg/injection, schedule: Q01DX009 (ip), vehicle: Klucel (hydroxypropylcellulose) (HPC)) 108 % of control; (endpoint: median survival time, dose: 0.25 mg/kg/injection, schedule: Q01DX009 (ip), vehicle: Klucel (hydroxypropylcellulose) (HPC)) 95 % of control; (endpoint: median survival time, dose: 0.5 mg/kg/injection, schedule: Q01DX009 (ip), vehicle: Klucel (hydroxypropylcellulose) (HPC)) 108 % of control; (endpoint: median survival time, dose: 1.0 mg/kg/injection, schedule: Q01DX009 (ip), vehicle: Klucel (hydroxypropylcellulose) (HPC)) 97 % of control.
Take `CC(C)NC(=O)OCc1c(COC(=O)NC(C)C)c(-c2ccc(Cl)c(Cl)c2)n2c1CCC2`: the T/C reads like this: (endpoint: median survival time, dose: 1.56 mg/kg/injection, schedule: Q01DX009 (ip), vehicle: distilled water + Tween-80) 108 % of control; (endpoint: median survival time, dose: 3.13 mg/kg/injection, schedule: Q01DX009 (ip), vehicle: distilled water + Tween-80) 97 % of control; (endpoint: median survival time, dose: 6.25 mg/kg/injection, schedule: Q01DX009 (ip), vehicle: distilled water + Tween-80) 101 % of control; (endpoint: median survival time, dose: 12.5 mg/kg/injection, schedule: Q01DX009 (ip), vehicle: distilled water + Tween-80) 119 % of control; (endpoint: median survival time, dose: 50.0 mg/kg/injection, schedule: Q01DX009 (ip), vehicle: distilled water + Tween-80) 109 % of control.
As to `CC[As](=O)(O)CC`, the T/C was 105 % of control (endpoint: median survival time, dose: 25.0 mg/kg/injection, schedule: Q01DX009 (ip), vehicle: saline); 101 % of control (endpoint: median survival time, dose: 100.0 mg/kg/injection, schedule: Q01DX009 (ip), vehicle: saline); 86 % of control (endpoint: median survival time, dose: 200.0 mg/kg/injection, schedule: Q01DX009 (ip), vehicle: saline).
For `S=c1nc[nH]c2nc[nH]c12`, the T/C reads like this: (endpoint: median survival time, dose: 7.5 mg/kg/injection, schedule: Q01DX009 (ip), vehicle: Klucel (hydroxypropylcellulose) (HPC)) 97 % of control; (endpoint: median survival time, dose: 15.0 mg/kg/injection, schedule: Q01DX005 (ip), vehicle: Klucel (hydroxypropylcellulose) (HPC)) 98 % of control; (endpoint: median survival time, dose: 15.0 mg/kg/injection, schedule: Q01DX009 (ip), vehicle: Klucel (hydroxypropylcellulose) (HPC)) 113 % of control and 87 % of control; (endpoint: median survival time, dose: 30.0 mg/kg/injection, schedule: Q01DX005 (ip), vehicle: Klucel (hydroxypropylcellulose) (HPC)) 122 % of control; (endpoint: median survival time, dose: 30.0 mg/kg/injection, schedule: Q01DX009 (ip), vehicle: Klucel (hydroxypropylcellulose) (HPC)) 92 % of control and 108 % of control; (endpoint: median survival time, dose: 60.0 mg/kg/injection, schedule: Q01DX005 (ip), vehicle: Klucel (hydroxypropylcellulose) (HPC)) 93 % of control. The T/C runs as follows: (endpoint: median survival time, dose: 120.0 mg/kg/injection, schedule: Q01DX005 (ip), vehicle: Klucel (hydroxypropylcellulose) (HPC)) 103 % of control; (endpoint: median survival time, dose: 240.0 mg/kg/injection, schedule: Q01DX005 (ip), vehicle: Klucel (hydroxypropylcellulose) (HPC)) 95 % of control.
In the case of `CCC1OCC(C(Cl)CCl)O1` (centres undefined), the T/C runs as follows: under setting [1], 103 % of control; under setting [2], 97 % of control; (endpoint: median survival time, dose: 12.5 mg/kg/injection, schedule: Q01DX009 (ip), vehicle: Klucel (hydroxypropylcellulose) (HPC)) 97 % of control; under setting [3], 108 % of control; under setting [4], 98 % of control; under setting [5], 109 % of control. Further, the T/C under setting [6] was 97 % of control; the T/C under setting [7] is 94 % of control; the T/C under setting [8] was 96 % of control; the T/C under setting [9] was 109 % of control; the T/C under setting [10] was 97 % of control.
Regarding `Nc1nc(SCc2ccccc2)c2ncn(C3OC(CO)CC3O)c2n1` (centres undefined), the T/C under setting [6] is 109 % of control.
On to `N/C(=N\O)c1cn(C2OC(CO)C(O)C2O)c2ncnc(N)c12` (centres undefined), for which the T/C is, setting by setting: (endpoint: median survival time, dose: 1.0 mg/kg/injection, schedule: Q01DX009 (ip), vehicle: saline) 91 % of control; (endpoint: median survival time, dose: 2.0 mg/kg/injection, schedule: Q01DX009 (ip), vehicle: saline) 88 % of control; (endpoint: median survival time, dose: 4.0 mg/kg/injection, schedule: Q01DX009 (ip), vehicle: saline) 98 % of control.
Consider `CN(C)c1ccc2c(SCC(=O)OCC(=O)[C@@]3(O)CC[C@H]4[C@@H]5CCC6=CC(=O)C=C[C@]6(C)[C@H]5C(=O)C[C@@]43C)c3ccc(N(C)C)cc3nc2c1`, for which the T/C runs as follows: under setting [4], 104 % of control; under setting [6], 106 % of control; under setting [8], 107 % of control; under setting [10], 102 % of control; (endpoint: median survival time, dose: 400.0 mg/kg/injection, schedule: Q01DX009 (ip), vehicle: Klucel (hydroxypropylcellulose) (HPC)) 107 % of control.
`CCN1CSC(=S)N(CC)C1`: the T/C is, setting by setting: under setting [5], 103 % of control; under setting [7], 101 % of control; under setting [9], 99 % of control.
Regarding `OC1CCCC2CCCNC12` (centres undefined), the T/C was 104 % of control under setting [1]; 100 % of control under setting [2]; 152 % of control under setting [3]; 96 % of control under setting [5]; 99 % of control under setting [7]; 95 % of control under setting [9].
As for `CNc1cccnc1/C=N/NC(N)=S`, the T/C reads like this: (endpoint: median survival time, dose: 12.0 mg/kg/injection, schedule: Q01DX009 (ip), vehicle: saline with Tween-80) 100 % of control; under setting [5], 103 % of control; under setting [7], 102 % of control; under setting [9], 115 % of control.
